Like-named read-outs stand apart in the source and are kept apart here.
Columns and labels:
[1] = system: OPM2 xenograft; settings: for Median Days to Target Size / LCK / CR (complete tumor regressions) / PR (partial tumor regressions) / TGI: Study #1; for Median Days to Target Size: ELO 0.5 mg/kg IP 2QW from d16, POM 5 mg/kg PO QD × 5 d16, 23, DEX 5 mg/kg IP QD × 7 from d16, target size 1 gm; for LCK / CR (complete tumor regressions) / PR (partial tumor regressions) / TGI: ELO 0.5, POM 5, DEX 5 mg/kg; for CR (complete tumor regressions) / PR (partial tumor regressions): mice of 8; for TGI: versus untreated mice; for Max % Weight Loss: mouse, in vivo
Protocol: Mice with established OPM2 xenograft tumors were randomized into 2 groups with 8 mice per group and were administered one of the following sets of regimens: (A) Control group was left untreated (filled circles), elotuzumab (0.5 mg/kg, twice weekly IP for 7 doses starting d16, open circles), dexamethasone (5 mg/kg, daily IP for 7 doses starting on d16, open triangles), elotuzumab plus dexamethasone combination (filled triangles), pomalidomide (5 mg/kg, daily for 5 days orally starting on d16 and then again for 5 days on d23) plus dexamethasone combination (dashes); or (B) Control group was left untreated (filled circles), elotuzumab (0.5 mg/kg, twice weekly IP for 7 doses starting d16, open circles), pomalidomide (5 mg/kg, daily for 5 days orally starting on d16 and then again for 5 days on d23, open squares), elotuzumab (0.5 mg/kg, twice weekly IP for 10 doses starting d16) plus pomalidomide combination (filled squares), elotuzumab (10 doses) plus pomalidomide plus dexamethasone combination (x's). The data are presented as means+/−standard deviation.
(§1) Mice with established OPM2 xenograft tumors were randomized into groups with 8 mice per group and were administered one of the following regimens: (A): untreated (control); (B): elotuzumab; (C): pomalidomide; (D): dexamethasone; (E): elotuzumab plus pomalidomide; (F): elotuzumab plus dexamethasone; (G): pomalidomide plus dexamethasone; or (H): elotuzumab plus pomalidomide plus dexamethasone. Data represent tumor weight measured in individual animals. Dosing route and regimen are described in FIG. 2 and Example 1.
(§2) Animals: All mice were obtained from Taconic Biosciences (Germantown, N.Y.), and maintained in ammonia-free environment in a defined and pathogen-free colony. All animal procedures were approved by the Bristol-Myers Squibb (BMS) Institutional Animal Care and Use Committee. The animal care and use program at BMS has been fully accredited by the Association for Assessment and Accreditation of Laboratory Animal Care International (AAALAC).
(§3) Animal Models: The human tumor xenograft OPM2 was grown in IcrTac scid mice (ICRPrkdcscid). Treated animals were checked daily for treatment related toxicity/mortality. Each group of animals was weighed before the initiation of treatment (Wt1) and then weighed again following the last treatment dose (Wt2). The difference in body weight (Wt2-Wt1) provides a measure of treatment-related toxicity. Additional weights were recorded at each measurement date to monitor toxicity.
(§4) Tumor response was determined by measurement of tumors with a caliper twice a week, until the tumors reached a predetermined “target” size of 1 gm. Tumor weights (mg) were estimated from the formula: Tumor weight=(length×width2)/2.
(§5) Tumor response end-point was expressed in terms of tumor cell kill and tumor growth inhibition. Tumor growth delay was defined as the difference in time (days) required for the treated tumors (T) to reach a predetermined target size compared to those in the control group (C). For this purpose tumor weight of a group was expressed as […] tumor weight (MTW).
(§6) Tumor cell kill was expressed in terms of log cell kill (LCK), represented by the equation LCK=[…] where tumor volume doubling time (TVDT) was first calculated with the formula: TVDT=Median time (days) for control tumor weight to reach target size−Median time (days) for control tumor weight to reach half the target size.

[2] = system: OPM2 xenograft; experiment: OPM2 xenograft studies taken together (summary and conclusion); assay type: in vivo, mice; settings: elotuzumab 0.5 mg/kg, pomalidomide 5 mg/kg, dexamethasone 5 mg/kg
Protocol: The present invention is based on data from preclinical studies conducted in female SCID mice (6-8 weeks old) that were implanted SC (subcutaneous implantation) with the multiple myeloma cell line OPM-2 which were treated with Elotuzumab IP (intraperitoneal administration) alone, treated with pomalidomide alone, treated with dexamethasone alone, or treated in combination with each other. […] All treatments were well tolerated, with no significant changes in body weights or overt signs of clinical toxicity.
Dosing regimen for dexamethasone was QD×7.

[3] = system: NK cells; settings: independent of the Fc portion of the antibody; cited from earlier work
[4] = system: OPM2 xenograft; settings: for Median Days to Target Size / LCK / CR (complete tumor regressions) / PR (partial tumor regressions) / TGI: Study #2; for Median Days to Target Size: ELO 0.5 mg/kg IP 2QW from d12, POM 5 mg/kg PO QD × 5 d12, 19, DEX 5 mg/kg IP QD × 7 from d12, target size 1 gm; for LCK / CR (complete tumor regressions) / PR (partial tumor regressions) / TGI: ELO 0.5, POM 5, DEX 5 mg/kg; for CR (complete tumor regressions) / PR (partial tumor regressions): mice of 8; for TGI: versus untreated mice
Protocol: FIGS. 4A-B. Study #2 (OPM2-16), Antitumor Activity, Elotuzumab Efficacy in Combination with Pomalidomide and Dexamethasone in OPM2 Multiple Myeloma Xenograft. Mice with established OPM2 xenograft tumors were randomized into 2 groups with 8 mice per group and were administered one of the following sets of regimens: (A) Control group was left untreated (filled circles), elotuzumab (0.5 mg/kg, twice weekly IP for 6 doses starting d12, open circles), dexamethasone (5 mg/kg, daily IP for 7 doses starting on d12, open triangles), elotuzumab (0.5 mg/kg, twice weekly IP for 8 doses starting d12) plus dexamethasone combination (filled triangles), pomalidomide (5 mg/kg, daily for 5 days orally starting on d12 and then again for 5 days on d19) plus dexamethasone combination (dashes); or (B) Control group was left untreated (filled circles), elotuzumab (0.5 mg/kg, twice weekly IP for 6 doses starting d12, open circles), pomalidomide (5 mg/kg, daily for 5 days orally starting on d12 and then again for 5 days on d19, open squares), elotuzumab (0.5 mg/kg, twice weekly IP for 8 doses starting d12) plus pomalidomide combination (filled squares), elotuzumab (0.5 mg/kg, twice weekly IP for 8 doses starting d12) plus pomalidomide plus dexamethasone combination (x's). The data are presented as means+/−standard deviation.
as §1, with “FIGS. 5A-H. Study #2 (OPM2-16), Anti Tumor Activity of Elotuzumab, Pomalidomide, and Dexamethasone as Single Agent and Combination Treatment in OPM2 Multiple Myeloma Xenograft tumor model. Mice” for “Mice”, “FIG. 4” for “FIG. 2”
as §2, §3, §4, §5, §6

[5] = system: multiple myeloma; settings: cited from earlier work

Molecule	Median Days to Target Size [1] [days]	LCK [1]	CR (complete tumor regressions) [1]	PR (partial tumor regressions) [1]	TGI [1] [%]	Max % Weight Loss [1] [%]	efficacy / effect on tumor growth (in words) [2]	NK cell activation [3]	Median Days to Target Size [4] [days]	LCK [4]	CR (complete tumor regressions) [4]	PR (partial tumor regressions) [4]	TGI [4] [%]	Max % Weight Loss ([4]; mouse, in vivo) [%]	ORR (≥PR) ([5]; 2 mg/day) [%]	median PFS ([5]; 2 mg/day) [months]	median duration of response ([5]; 2 mg/day) [months]	ORR (≥PR) ([5]; 4 mg/day) [%]	median PFS ([5]; 4 mg/day) [months]	median duration of response ([5]; 4 mg/day) [months]
Elotuzumab: humanized monoclonal IgG1 antibody directed against CS-1; VL SEQ ID NO:1, VH SEQ ID NO:2	35.0	0.61	0/8	0/8	70.3	−2.2	inhibited tumor growth	activate NK cells by up-regulation of CD69 and granzyme B expression	24.0	0.47	0/8	0/8	57.7	–	–	–	–	–	–	–
Nc1cccc2c1C(=O)N(C1CCC(=O)NC1=O)C2=O (racemic) [Pomalidomide, (RS)-4-amino-2-(2,6-dioxo-piperidin-3-yl)-isoindole-1,3-dione]	29.8	0.26	0/8	0/8	52	−1.1	inhibited tumor growth	–	22.5	0.33	0/8	0/8	41.4	−1.1	29	5.5	14.1	35	6.9	14.5
